Data on 13 molecules can be found in ChEMBL document CHEMBL3352554, “Synthesis and structure-activity relationships of 4-fluorophenyl-imidazole p38α MAPK, CK1δ and JAK2 kinase inhibitors” (Bioorg Med Chem Lett, 2014).

Activity calls are given as the source filed them. The calls are words filed in the database; no cut-off is given here.

Sequence of Casein kinase I isoform delta (P48730 whole entry, canonical isoform): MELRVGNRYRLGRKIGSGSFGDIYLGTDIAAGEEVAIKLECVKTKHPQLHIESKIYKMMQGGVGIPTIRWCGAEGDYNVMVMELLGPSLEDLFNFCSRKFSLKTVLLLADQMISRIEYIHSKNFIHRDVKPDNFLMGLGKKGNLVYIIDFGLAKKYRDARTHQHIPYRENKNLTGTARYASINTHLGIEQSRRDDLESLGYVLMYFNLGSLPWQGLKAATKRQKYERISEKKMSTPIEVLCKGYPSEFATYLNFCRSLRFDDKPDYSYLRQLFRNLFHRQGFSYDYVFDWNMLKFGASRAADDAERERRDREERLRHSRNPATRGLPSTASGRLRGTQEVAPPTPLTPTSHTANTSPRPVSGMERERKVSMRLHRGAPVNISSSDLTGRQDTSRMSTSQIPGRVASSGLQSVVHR
Sequence of Tyrosine-protein kinase JAK1 (P23458 whole entry): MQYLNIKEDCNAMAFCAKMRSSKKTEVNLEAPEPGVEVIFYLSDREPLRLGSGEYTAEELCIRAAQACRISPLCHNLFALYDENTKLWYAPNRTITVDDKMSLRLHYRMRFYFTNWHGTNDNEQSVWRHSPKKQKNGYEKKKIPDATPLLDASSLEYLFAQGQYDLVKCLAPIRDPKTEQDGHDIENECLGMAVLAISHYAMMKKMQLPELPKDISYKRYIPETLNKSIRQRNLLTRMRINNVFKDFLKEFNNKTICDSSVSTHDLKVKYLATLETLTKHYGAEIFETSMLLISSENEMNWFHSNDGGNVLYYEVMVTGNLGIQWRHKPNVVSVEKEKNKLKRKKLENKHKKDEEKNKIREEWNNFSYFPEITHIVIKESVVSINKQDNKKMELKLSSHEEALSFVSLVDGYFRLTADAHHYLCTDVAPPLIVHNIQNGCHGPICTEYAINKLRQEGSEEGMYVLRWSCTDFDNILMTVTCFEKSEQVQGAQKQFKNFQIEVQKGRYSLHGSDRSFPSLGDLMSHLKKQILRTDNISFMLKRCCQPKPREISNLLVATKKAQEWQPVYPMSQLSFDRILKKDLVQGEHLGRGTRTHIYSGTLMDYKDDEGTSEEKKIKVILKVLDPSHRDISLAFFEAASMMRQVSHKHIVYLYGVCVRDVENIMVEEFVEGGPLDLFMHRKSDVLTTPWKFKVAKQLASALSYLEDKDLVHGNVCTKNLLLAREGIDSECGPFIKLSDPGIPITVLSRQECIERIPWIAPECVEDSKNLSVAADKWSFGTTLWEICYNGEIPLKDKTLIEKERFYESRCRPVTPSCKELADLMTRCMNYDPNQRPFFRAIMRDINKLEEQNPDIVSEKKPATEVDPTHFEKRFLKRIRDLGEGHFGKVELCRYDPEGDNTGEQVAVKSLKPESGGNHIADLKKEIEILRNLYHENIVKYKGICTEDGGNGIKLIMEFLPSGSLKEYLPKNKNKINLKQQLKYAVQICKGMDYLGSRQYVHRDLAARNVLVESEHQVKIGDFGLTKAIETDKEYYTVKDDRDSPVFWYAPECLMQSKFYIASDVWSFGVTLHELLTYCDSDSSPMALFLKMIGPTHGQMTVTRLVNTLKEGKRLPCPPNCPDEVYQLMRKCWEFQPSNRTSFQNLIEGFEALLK

One assay has as its target Casein kinase I isoform delta (Homo sapiens, UniProt P48730). Briefly: Inhibition of CK1-delta (unknown origin) by radiometric assay.
Molecule `CCOC(=O)Cn1cc(-c2ccc(-c3nc(-c4ccc(F)cc4)c(-c4cc[nH]c(=O)c4)[nH]3)cc2)nn1` registered an IC50 of 24.5 µM.
Same read-out and setting: under `CCOP(=O)(CCn1cc(-c2nc(-c3ccc(F)cc3)c(-c3ccncc3)n2C)nn1)OCC` stands 3.1 µM; under `O=c1cc(-c2[nH]c(-c3ccc(-c4cn(CCO)nn4)cc3)nc2-c2ccc(F)cc2)cc[nH]1`, 17.9 µM; under `CSc1nccc(-c2c(-c3ccc(F)cc3)nc3nc(-c4cn(CCP(=O)(O)O)nn4)ccn23)n1`, more than 100 µM.
On the same count and under the same terms, in the case of `CSc1nccc(-c2c(-c3ccc(F)cc3)nc3nc(-c4cn(CC(=O)O)nn4)ccn23)n1` it was more than 100 µM.
Same read-out and setting: in the case of `CSc1nccc(-c2[nH]c(-c3ccc(O)cc3)nc2-c2ccc(F)cc2)n1` it was 5.96 µM; in that of `Cn1c(-c2c[nH]nn2)nc(-c2ccc(F)cc2)c1-c1ccncc1`, 0.202 µM.
For `C#Cc1ccc(-c2nc(-c3ccc(F)cc3)c(-c3cc[nH]c(=O)c3)[nH]2)cc1`, 19.9 µM corresponded to half-maximal inhibition (IC50).
Same read-out and setting: in the case of `O=c1cc(-c2[nH]c(-c3ccc(-c4nnn[nH]4)cc3)nc2-c2ccc(F)cc2)cc[nH]1` it was 12.1 µM; in that of `C#Cc1ccc(-c2nc(-c3ccc(F)cc3)c(-c3ccnc(SC)n3)[nH]2)cc1`, 66.3 µM; in that of `CSc1nccc(-c2c(-c3ccc(F)cc3)nc3nc(N)ccn23)n1`, more than 100 µM.
Still for that read-out and setting: under `Cn1c(-c2cn(CCP(=O)(O)O)nn2)nc(-c2ccc(F)cc2)c1-c1ccncc1` stands 0.225 µM.
Still for that read-out and setting: in the case of `O=C(O)c1cc(-c2nc(-c3ccc(F)cc3)c(-c3cc[nH]c(=O)c3)[nH]2)ccc1O` it was 21.2 µM.

The target in another assay is T1, Mitogen-activated protein kinase 14 (Homo sapiens, UniProt Q16539). Briefly: Inhibition of p38alpha MAPK (unknown origin) by radiometric assay.
T1 sequence (Q16539 whole entry): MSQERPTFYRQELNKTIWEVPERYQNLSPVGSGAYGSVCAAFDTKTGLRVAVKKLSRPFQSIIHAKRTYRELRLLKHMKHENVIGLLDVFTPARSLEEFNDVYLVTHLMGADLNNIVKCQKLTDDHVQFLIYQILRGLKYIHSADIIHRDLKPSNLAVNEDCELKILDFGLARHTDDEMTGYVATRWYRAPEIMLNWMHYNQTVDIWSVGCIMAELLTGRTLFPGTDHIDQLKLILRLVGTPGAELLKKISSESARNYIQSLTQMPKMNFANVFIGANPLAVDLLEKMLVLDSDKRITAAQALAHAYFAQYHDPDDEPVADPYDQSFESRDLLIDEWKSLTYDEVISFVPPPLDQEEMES
`CCOC(=O)Cn1cc(-c2ccc(-c3nc(-c4ccc(F)cc4)c(-c4cc[nH]c(=O)c4)[nH]3)cc2)nn1` gave an IC50 of 32.9 µM.
Same read-out and setting: in the case of `CCOP(=O)(CCn1cc(-c2nc(-c3ccc(F)cc3)c(-c3ccncc3)n2C)nn1)OCC` it was 2.48 µM; in that of `O=c1cc(-c2[nH]c(-c3ccc(-c4cn(CCO)nn4)cc3)nc2-c2ccc(F)cc2)cc[nH]1`, 18.6 µM; in that of `CSc1nccc(-c2c(-c3ccc(F)cc3)nc3nc(-c4cn(CCP(=O)(O)O)nn4)ccn23)n1`, more than 100 µM.
Take `CSc1nccc(-c2c(-c3ccc(F)cc3)nc3nc(-c4cn(CC(=O)O)nn4)ccn23)n1`: 0.25 µM corresponded to half-maximal inhibition (IC50).
`CSc1nccc(-c2[nH]c(-c3ccc(O)cc3)nc2-c2ccc(F)cc2)n1` registered a concentration for half-maximal inhibition (IC50) of 0.0955 µM. Against the preceding molecule, the IC50 is about 2.6-fold lower.
As for `Cn1c(-c2c[nH]nn2)nc(-c2ccc(F)cc2)c1-c1ccncc1`, the IC50 was found to be 0.21 µM.
Same read-out and setting: under `C#Cc1ccc(-c2nc(-c3ccc(F)cc3)c(-c3cc[nH]c(=O)c3)[nH]2)cc1` stands 9.39 µM.
The same measure, in the same setting: under `O=c1cc(-c2[nH]c(-c3ccc(-c4nnn[nH]4)cc3)nc2-c2ccc(F)cc2)cc[nH]1` stands 2.53 µM; under `C#Cc1ccc(-c2nc(-c3ccc(F)cc3)c(-c3ccnc(SC)n3)[nH]2)cc1`, 82.1 µM; under `CSc1nccc(-c2c(-c3ccc(F)cc3)nc3nc(N)ccn23)n1`, 0.12 µM.
As for `O=C(O)c1cc(-c2nc(-c3ccc(F)cc3)c(-c3cc[nH]c(=O)c3)[nH]2)ccc1O`, the IC50 amounted to 6.81 µM.

The target in another assay is T2, Tyrosine-protein kinase JAK3 (Homo sapiens, UniProt P52333).
T2 sequence (P52333 whole entry): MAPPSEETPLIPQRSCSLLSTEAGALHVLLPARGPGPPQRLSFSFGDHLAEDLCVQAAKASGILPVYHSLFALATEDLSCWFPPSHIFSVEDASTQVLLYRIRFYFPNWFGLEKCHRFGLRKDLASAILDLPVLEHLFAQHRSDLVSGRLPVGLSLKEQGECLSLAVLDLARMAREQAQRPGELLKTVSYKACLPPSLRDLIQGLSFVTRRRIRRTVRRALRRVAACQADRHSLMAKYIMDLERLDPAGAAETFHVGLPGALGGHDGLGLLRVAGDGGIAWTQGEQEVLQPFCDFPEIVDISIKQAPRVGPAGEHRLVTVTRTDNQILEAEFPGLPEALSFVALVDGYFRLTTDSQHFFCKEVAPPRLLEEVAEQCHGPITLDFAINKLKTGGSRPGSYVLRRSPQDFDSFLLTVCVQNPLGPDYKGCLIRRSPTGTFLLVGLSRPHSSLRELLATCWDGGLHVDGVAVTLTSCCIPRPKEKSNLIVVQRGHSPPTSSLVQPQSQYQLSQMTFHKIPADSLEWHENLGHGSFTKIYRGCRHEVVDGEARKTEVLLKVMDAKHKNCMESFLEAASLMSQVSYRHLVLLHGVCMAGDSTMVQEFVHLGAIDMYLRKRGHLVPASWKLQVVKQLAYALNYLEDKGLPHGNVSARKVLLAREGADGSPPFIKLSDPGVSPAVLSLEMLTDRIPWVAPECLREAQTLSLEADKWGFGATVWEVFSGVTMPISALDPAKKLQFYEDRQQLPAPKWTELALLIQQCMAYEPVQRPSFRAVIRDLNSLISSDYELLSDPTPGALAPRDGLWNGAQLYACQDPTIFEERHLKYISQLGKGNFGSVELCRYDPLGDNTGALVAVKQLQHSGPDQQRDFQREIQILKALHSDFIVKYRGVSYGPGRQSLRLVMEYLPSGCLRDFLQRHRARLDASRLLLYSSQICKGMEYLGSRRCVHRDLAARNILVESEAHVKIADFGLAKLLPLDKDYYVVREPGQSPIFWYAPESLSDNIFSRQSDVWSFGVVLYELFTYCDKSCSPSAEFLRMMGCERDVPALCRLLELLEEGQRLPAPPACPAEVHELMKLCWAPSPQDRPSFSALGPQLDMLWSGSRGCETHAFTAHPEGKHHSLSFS
The experiment in a line: Inhibition of JAK3 (unknown origin) by radiometric assay.
For the molecule `CCOC(=O)Cn1cc(-c2ccc(-c3nc(-c4ccc(F)cc4)c(-c4cc[nH]c(=O)c4)[nH]3)cc2)nn1`, the IC50 is 3.03 µM.
Molecule `CCOP(=O)(CCn1cc(-c2nc(-c3ccc(F)cc3)c(-c3ccncc3)n2C)nn1)OCC` came in with an IC50 of more than 100 µM.
The same measure, in the same setting: in the case of `O=c1cc(-c2[nH]c(-c3ccc(-c4cn(CCO)nn4)cc3)nc2-c2ccc(F)cc2)cc[nH]1` it was 10.6 µM.
On the same count and under the same terms, in the case of `CSc1nccc(-c2c(-c3ccc(F)cc3)nc3nc(-c4cn(CCP(=O)(O)O)nn4)ccn23)n1` it was more than 100 µM; in that of `CSc1nccc(-c2c(-c3ccc(F)cc3)nc3nc(-c4cn(CC(=O)O)nn4)ccn23)n1`, more than 100 µM.
On the same count and under the same terms, in the case of `CSc1nccc(-c2[nH]c(-c3ccc(O)cc3)nc2-c2ccc(F)cc2)n1` it was 78.3 µM; in that of `Cn1c(-c2c[nH]nn2)nc(-c2ccc(F)cc2)c1-c1ccncc1`, more than 100 µM; in that of `C#Cc1ccc(-c2nc(-c3ccc(F)cc3)c(-c3cc[nH]c(=O)c3)[nH]2)cc1`, more than 100 µM.
As to `O=c1cc(-c2[nH]c(-c3ccc(-c4nnn[nH]4)cc3)nc2-c2ccc(F)cc2)cc[nH]1`, the IC50 was 0.783 µM.
For the molecule `C#Cc1ccc(-c2nc(-c3ccc(F)cc3)c(-c3ccnc(SC)n3)[nH]2)cc1`, the half-maximal inhibitory concentration (IC50) was more than 100 µM.
The molecule `CSc1nccc(-c2c(-c3ccc(F)cc3)nc3nc(N)ccn23)n1` returned a half-maximal inhibitory concentration (IC50) of more than 100 µM.
Still for that read-out and setting: under `Cn1c(-c2cn(CCP(=O)(O)O)nn2)nc(-c2ccc(F)cc2)c1-c1ccncc1` stands more than 100 µM.
Regarding `O=C(O)c1cc(-c2nc(-c3ccc(F)cc3)c(-c3cc[nH]c(=O)c3)[nH]2)ccc1O`, the IC50 was 21.4 µM.

For a further assay, the target named is T1, Mitogen-activated protein kinase 14. The experiment in a line: Inhibition of p38alpha MAPK in TNF-alpha-induced HUVEC assessed as downregulation of IL-6 mRNA expression at 10 uM incubated for 4 hrs by RT-PCR analysis. Format: cell-based.
Consider `O=C(O)c1cc(-c2nc(-c3ccc(F)cc3)c(-c3cc[nH]c(=O)c3)[nH]2)ccc1O`, for which the inhibition result is “inactive”.

The target is the same in a further assay. The experiment in a line: Inhibition of p38alpha MAPK in TNF-alpha-induced HUVEC assessed as downregulation of COX-2 mRNA expression at 10 uM incubated for 4 hrs by RT-PCR analysis. The format is cell-based.
`O=C(O)c1cc(-c2nc(-c3ccc(F)cc3)c(-c3cc[nH]c(=O)c3)[nH]2)ccc1O`: the inhibition result was “inactive”.

The next assay concerns the target Tyrosine-protein kinase JAK1 (Homo sapiens, UniProt P23458). Briefly: Inhibition of JAK1 (unknown origin) by radiometric assay.
Turning to `CCOC(=O)Cn1cc(-c2ccc(-c3nc(-c4ccc(F)cc4)c(-c4cc[nH]c(=O)c4)[nH]3)cc2)nn1`, the 50% inhibitory concentration (IC50) was determined as 80.1 µM.
On the same count and under the same terms, in the case of `CCOP(=O)(CCn1cc(-c2nc(-c3ccc(F)cc3)c(-c3ccncc3)n2C)nn1)OCC` it was more than 100 µM.
Still for that read-out and setting: under `O=c1cc(-c2[nH]c(-c3ccc(-c4cn(CCO)nn4)cc3)nc2-c2ccc(F)cc2)cc[nH]1` stands more than 10 µM.
Same read-out and setting: in the case of `CSc1nccc(-c2c(-c3ccc(F)cc3)nc3nc(-c4cn(CCP(=O)(O)O)nn4)ccn23)n1` it was more than 100 µM; in that of `CSc1nccc(-c2c(-c3ccc(F)cc3)nc3nc(-c4cn(CC(=O)O)nn4)ccn23)n1`, more than 100 µM.
In turn, `CSc1nccc(-c2[nH]c(-c3ccc(O)cc3)nc2-c2ccc(F)cc2)n1` gave an IC50 of more than 100 µM.
On the same count and under the same terms, in the case of `Cn1c(-c2c[nH]nn2)nc(-c2ccc(F)cc2)c1-c1ccncc1` it was more than 100 µM; in that of `C#Cc1ccc(-c2nc(-c3ccc(F)cc3)c(-c3cc[nH]c(=O)c3)[nH]2)cc1`, more than 10 µM; in that of `O=c1cc(-c2[nH]c(-c3ccc(-c4nnn[nH]4)cc3)nc2-c2ccc(F)cc2)cc[nH]1`, 1.68 µM.
Same read-out and setting: under `C#Cc1ccc(-c2nc(-c3ccc(F)cc3)c(-c3ccnc(SC)n3)[nH]2)cc1` stands more than 100 µM; under `CSc1nccc(-c2c(-c3ccc(F)cc3)nc3nc(N)ccn23)n1`, more than 100 µM; under `Cn1c(-c2cn(CCP(=O)(O)O)nn2)nc(-c2ccc(F)cc2)c1-c1ccncc1`, more than 100 µM.
The same measure, in the same setting: under `O=C(O)c1cc(-c2nc(-c3ccc(F)cc3)c(-c3cc[nH]c(=O)c3)[nH]2)ccc1O` stands more than 100 µM.

In the next assay the target is T1, Mitogen-activated protein kinase 14. Briefly: Inhibition of p38alpha MAPK in TNF-alpha-induced HUVEC assessed as downregulation of VCAM-1 mRNA expression at 10 uM incubated for 4 hrs by RT-PCR analysis. The format is cell-based.
On to `O=C(O)c1cc(-c2nc(-c3ccc(F)cc3)c(-c3cc[nH]c(=O)c3)[nH]2)ccc1O`, for which the inhibition entry is “inactive”.

The target of another assay is Tyrosine-protein kinase JAK2 (Homo sapiens, UniProt O60674). The experiment in a line: Inhibition of JAK2 (unknown origin) by radiometric assay.
Sequence of Tyrosine-protein kinase JAK2 (O60674 whole entry): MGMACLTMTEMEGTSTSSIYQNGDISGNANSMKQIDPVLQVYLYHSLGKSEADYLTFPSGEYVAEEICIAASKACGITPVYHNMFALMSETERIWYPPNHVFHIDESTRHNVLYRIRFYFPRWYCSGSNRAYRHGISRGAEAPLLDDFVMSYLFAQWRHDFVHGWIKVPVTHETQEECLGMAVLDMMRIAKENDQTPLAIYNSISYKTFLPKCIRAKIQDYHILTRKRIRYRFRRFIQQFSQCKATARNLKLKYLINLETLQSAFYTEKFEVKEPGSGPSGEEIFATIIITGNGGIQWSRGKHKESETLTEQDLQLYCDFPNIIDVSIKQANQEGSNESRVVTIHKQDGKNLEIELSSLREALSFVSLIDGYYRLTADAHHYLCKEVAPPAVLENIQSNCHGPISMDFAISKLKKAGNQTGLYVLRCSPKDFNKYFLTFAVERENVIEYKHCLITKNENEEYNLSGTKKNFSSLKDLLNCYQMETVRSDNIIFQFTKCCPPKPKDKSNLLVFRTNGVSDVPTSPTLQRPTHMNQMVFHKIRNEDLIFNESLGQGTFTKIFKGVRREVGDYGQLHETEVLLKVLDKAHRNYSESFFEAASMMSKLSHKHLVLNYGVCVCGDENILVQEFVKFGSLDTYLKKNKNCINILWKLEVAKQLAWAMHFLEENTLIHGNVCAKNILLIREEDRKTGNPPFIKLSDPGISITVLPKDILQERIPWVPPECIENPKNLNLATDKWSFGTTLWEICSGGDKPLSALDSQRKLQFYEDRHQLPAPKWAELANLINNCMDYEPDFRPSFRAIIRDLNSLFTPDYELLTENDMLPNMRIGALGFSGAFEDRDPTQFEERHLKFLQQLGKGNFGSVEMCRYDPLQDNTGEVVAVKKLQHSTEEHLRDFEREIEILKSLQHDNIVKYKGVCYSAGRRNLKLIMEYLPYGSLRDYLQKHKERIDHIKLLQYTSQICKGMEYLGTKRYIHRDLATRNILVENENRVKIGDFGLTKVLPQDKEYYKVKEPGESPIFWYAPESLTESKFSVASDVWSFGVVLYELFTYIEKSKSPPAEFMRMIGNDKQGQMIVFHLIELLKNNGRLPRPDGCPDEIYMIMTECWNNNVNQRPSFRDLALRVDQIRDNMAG
As to `CCOC(=O)Cn1cc(-c2ccc(-c3nc(-c4ccc(F)cc4)c(-c4cc[nH]c(=O)c4)[nH]3)cc2)nn1`, the IC50 was 0.352 µM.
On the same count and under the same terms, under `CCOP(=O)(CCn1cc(-c2nc(-c3ccc(F)cc3)c(-c3ccncc3)n2C)nn1)OCC` stands more than 100 µM.
On the same count and under the same terms, in the case of `O=c1cc(-c2[nH]c(-c3ccc(-c4cn(CCO)nn4)cc3)nc2-c2ccc(F)cc2)cc[nH]1` it was 0.5 µM; in that of `CSc1nccc(-c2c(-c3ccc(F)cc3)nc3nc(-c4cn(CCP(=O)(O)O)nn4)ccn23)n1`, more than 100 µM.
On the same count and under the same terms, under `CSc1nccc(-c2c(-c3ccc(F)cc3)nc3nc(-c4cn(CC(=O)O)nn4)ccn23)n1` stands more than 100 µM; under `CSc1nccc(-c2[nH]c(-c3ccc(O)cc3)nc2-c2ccc(F)cc2)n1`, more than 100 µM; under `Cn1c(-c2c[nH]nn2)nc(-c2ccc(F)cc2)c1-c1ccncc1`, more than 100 µM.
`C#Cc1ccc(-c2nc(-c3ccc(F)cc3)c(-c3cc[nH]c(=O)c3)[nH]2)cc1` gave an IC50 of 14.3 µM.
Still for that read-out and setting: under `O=c1cc(-c2[nH]c(-c3ccc(-c4nnn[nH]4)cc3)nc2-c2ccc(F)cc2)cc[nH]1` stands 0.061 µM; under `C#Cc1ccc(-c2nc(-c3ccc(F)cc3)c(-c3ccnc(SC)n3)[nH]2)cc1`, more than 100 µM.
Still for that read-out and setting: under `CSc1nccc(-c2c(-c3ccc(F)cc3)nc3nc(N)ccn23)n1` stands more than 100 µM; under `Cn1c(-c2cn(CCP(=O)(O)O)nn2)nc(-c2ccc(F)cc2)c1-c1ccncc1`, more than 100 µM; under `O=C(O)c1cc(-c2nc(-c3ccc(F)cc3)c(-c3cc[nH]c(=O)c3)[nH]2)ccc1O`, 3.71 µM.

As a reminder, the IC50 is the concentration at which inhibition is half-maximal.
